Assay results published in article PMC9187652, “Investigating the ligand agonism and antagonism at the D2long receptor by dynamic mass redistribution” (Scientific Reports, 2022).
Like-named read-outs stand apart in the source and are kept apart here. Marks after values point to notes of the source that are not given here. *1 amine or outer side, *2 acyl side, *3 side chain or, on linkers, in order; H or OH if unused. Where a SMILES comes first, the peptide text is derived from it. Bridges are numbered along the chain shown (N, C = ends). [ ]: non-standard residue; d: D form. The star is where a group is joined. Leu(3R-OH,Nα-propionyl) = CCC(=O)N[C@H](C(=O)*)[C@H](O)C(C)C; X1 = CC(C)[C@@H](O[*:3])[C@H](N[*:1])C(=O)[*:2]; NMeT = CN[C@H](C(=O)O)[C@@H](C)O; dPhLac = O=C(O)[C@H](O)Cc1ccccc1; NMeA = CN[C@@H](C)C(=O)O; NMeDha = C=C(NC)C(=O)O

How the values were obtained:
[1] = tested on: CHO-K1 hD2longR cells; format: cell-based, human
[2] = biological target: T1, hD2longR (Homo sapiens, UniProt P14416); format: cell-based
[3] = biological target: T2, human dopamine D2long receptor (Homo sapiens, UniProt P14416)
[4] = tested on: untransfected CHO-K1 cells; test: DMR off-target test in untransfected CHO-K1 cells
[5] = biological target: D2long receptors; conditions: read-out: EC50 (DMR); cited from earlier work
[6] = biological target: T2, human dopamine D2long receptor; remark: listed apart in the source
[7] = biological target: T2, human dopamine D2long receptor; test: cell-based; conditions: CHO-K1, read-out: DMR Emax (%)
[8] = biological target: T1, hD2longR; conditions: cited from earlier work
[9] = biological target: D2R; conditions: cited from earlier work; for Emax, [35S]GTPγS binding: relative to dopamine
[10] = CHO-K1 hD2longR cells pretreated with the agent (PTX, CTX about 20 h; FR900359 2 h; forskolin 1 μM 40 min; EGTA 2 mM in assay buffer)

T2 sequence (P14416 whole entry): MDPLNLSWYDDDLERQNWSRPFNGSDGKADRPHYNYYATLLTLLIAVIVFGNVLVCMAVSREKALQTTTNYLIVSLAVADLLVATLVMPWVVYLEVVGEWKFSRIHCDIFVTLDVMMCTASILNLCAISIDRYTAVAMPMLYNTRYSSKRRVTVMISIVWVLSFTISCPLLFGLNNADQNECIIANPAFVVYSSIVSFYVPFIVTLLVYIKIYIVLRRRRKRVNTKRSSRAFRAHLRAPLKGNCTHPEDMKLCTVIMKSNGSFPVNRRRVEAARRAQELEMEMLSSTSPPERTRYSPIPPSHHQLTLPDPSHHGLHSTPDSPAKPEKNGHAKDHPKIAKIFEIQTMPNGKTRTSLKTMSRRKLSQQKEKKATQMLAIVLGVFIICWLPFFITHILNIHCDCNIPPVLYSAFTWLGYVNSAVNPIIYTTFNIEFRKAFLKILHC
T1 sequence (P14416 whole entry): as above

## cholera toxin [CTX]
[1]
  DMR response induced by the agent alone in CHO-K1 hD2longR cells: did not induce a DMR response
  effect on the quinpirole induced DMR response: apparent increase in quinpirole efficacy
[2]
  effect on receptor expression ([3H]N-methylspiperone binding): slight up-regulation

## CNc1cc(OC)c(C(=O)NC2CCN(Cc3ccccc3)C2C)cc1Cl (centres unmarked) [Nemonapride, nemonapride]
[3]
  Hill Slope of inhibition curve: −1.95
[4]
  DMR response in untransfected CHO-K1 cells (off-target activity): slight negative DMR response

## NCCc1ccc(O)c(O)c1 [Dopamine, dopamine]
[5]
  EC50: 11 nM

## C=C[C@@]1(C)CC(=O)[C@]2(O)[C@@]3(C)[C@@H](O)CCC(C)(C)[C@@H]3[C@H](O)[C@H](OC(C)=O)[C@@]2(C)O1 [forskolin]
[1]; [10]
  effect on the quinpirole induced DMR response: increase in quinpirole efficacy
[1]; forskolin alone
  time of minimum of the forskolin DMR signal: about 5 min
[1]; without quinpirole, thapsigargin in EGTA (2 mM) containing buffer, forskolin 1 μM
  DMR response induced by the agent alone in CHO-K1 hD2longR cells: negative DMR signal
[2]; forskolin 1 μM for 40 min
  effect on receptor expression ([3H]N-methylspiperone binding): did not exhibit a marked effect on the receptor expression
[2]; forskolin 1 μM for 20 h
  effect on receptor expression ([3H]N-methylspiperone binding): strong increase in specific radioligand binding

## pertussis toxin [PTX]
[1]
  DMR response induced by the agent alone in CHO-K1 hD2longR cells: did not induce a DMR response
[1]; [10]
  effect on the quinpirole induced DMR response: concentration-dependent decrease in the DMR response

## CCN1CCC[C@H]1CNC(=O)c1cc(S(N)(=O)=O)ccc1OC [S-(−)-sulpiride]
[3]; antagonist mode, versus 30 nM quinpirole
  Hill Slope of inhibition curve: −1.18

## C=C1C(=O)N[C@@H](C)C(=O)N(C)[C@@H](C)C(=O)N[C@@H]([C@H](OC(=O)[C@@H](NC(=O)CC)[C@H](O)C(C)C)C(C)C)C(=O)N(C)[C@@H]([C@@H](C)OC)C(=O)O[C@H](C(C)C)[C@H](NC(C)=O)C(=O)O[C@H](Cc2ccccc2)C(=O)N1C [FR900359] (Ac-[X1][dPhLac][NMeDha]A[NMeA][X1](Leu(3R-OH,Nα-propionyl))[NMeT](Me); ester 1-C)
[1]
  DMR response induced by the agent alone in CHO-K1 hD2longR cells: did not induce a DMR response
[1]; [10]
  effect on the quinpirole induced DMR response: did not show a pronounced effect

## CCCN[C@H]1CCc2nc(N)sc2C1 [Pramipexole, pramipexole]
[5]
  EC50: 8.7 nM
[6]
  quality of action in the DMR assay (full / partial agonist): full agonists
[7]
  Emax: 97 ± 0.1%

## O=C(CCCN1CCC(O)(c2ccc(Cl)cc2)CC1)c1ccc(F)cc1 [Haloperidol, haloperidol]
[4]
  DMR response in untransfected CHO-K1 cells (off-target activity): slight negative DMR response

## R-(−)-apomorphine
[8]
  β-arrestin2 recruitment Emax (%): 87 ± 3^a %
[9]; ref 42
  pEC50, [35S]GTPγS binding: 7.66
  Emax, [35S]GTPγS binding: 53%
[9]; ref 49
  pEC50, [35S]GTPγS binding: 6.76
  Emax, [35S]GTPγS binding: 90%
[6]
  DMR Emax (%): 102 ± 5%
  quality of action in the DMR assay (full / partial agonist): full agonist
[4]
  DMR response in untransfected CHO-K1 cells (off-target activity): did not elicit a DMR signal

## O=C(O)CN(CCOCCOCCN(CC(=O)O)CC(=O)O)CC(=O)O [EGTA]
[1]; [10]
  effect on the quinpirole induced DMR response: completely abrogated the quinpirole-induced response

## C/C=C(/C)C(=O)O[C@H]1C(C)=C2[C@H]([C@@H]1OC(=O)CCCCCCC)[C@@](C)(OC(C)=O)C[C@H](OC(=O)CCC)[C@@]1(O)[C@H]2OC(=O)[C@@]1(C)O [thapsigargin]
[1]
  DMR response induced by the agent alone in CHO-K1 hD2longR cells: rapidly decreasing negative DMR signal
[1]; EGTA containing assay buffer
  time to plateau of the thapsigargin-induced negative DMR signal: approximately 15 min
[1]; thapsigargin (1 μM or 2 μM, 20 min) in combination with EGTA (2 mM)
  effect on the quinpirole induced DMR response: completely abrogated the quinpirole-induced response
